In patent publication US11492341B2, “ACLY inhibitors and uses thereof” (Nimbus Artemis, Inc., priority 2018, dated 2022):

molecular target: ACL (Homo sapiens (Human), UniProt P53396); test: ADP-Glo Assay; assay type: biochemical; conditions: 3 nM ACL, 15 μM ATP, 3 μM CoA, 300 μM Citrate
Experimental: Example 28. ADP-Glo Assay
Compounds of the present invention were evaluated in an ADP-GLO assay as follows: a) Dilute cpd 1:3 in succession in DMSO by hand for each cpds for 12 pts b) Add 0.1 μL diluted cpd solution to assay plate, each dose with 2 replicates c) Centrifuge 1000 RPM for 1 min d) Add 5 μL ACL working solution to 384-well assay plate, centrifuge 1000 RPM for 1 min e) Incubate at 25° C. for 15 min f) Add 5 μL substrate working solution to initiate reaction g) Final ACL reaction concentrations: 3 nM ACL, 15 μM ATP, 3 μM CoA, 300 μM Citrate, 0.01% Brij35, 4 mM DTT, 1% DMSO; h) Reference final conc: 30 uM starting Conc, 3× dilution, 11+0 points. Test cpd conc: 30/100 uM starting Conc, 3× dilution, 11+0 points. i) Incubate at 25° C. for 60 min j) Add 10 μL ADP Glo reagent, centrifuge 1000 RPM for 1 min k) Incubate at 25° C. for 40 min l) Add 20 μL kinase detection reagent, centrifuge 1000 RPM for 1 min m) Incubate at 25° C. for 40 min n) Read on Envision for US LUM as RLU

ACL, sequence (P53396 whole entry, species assumed): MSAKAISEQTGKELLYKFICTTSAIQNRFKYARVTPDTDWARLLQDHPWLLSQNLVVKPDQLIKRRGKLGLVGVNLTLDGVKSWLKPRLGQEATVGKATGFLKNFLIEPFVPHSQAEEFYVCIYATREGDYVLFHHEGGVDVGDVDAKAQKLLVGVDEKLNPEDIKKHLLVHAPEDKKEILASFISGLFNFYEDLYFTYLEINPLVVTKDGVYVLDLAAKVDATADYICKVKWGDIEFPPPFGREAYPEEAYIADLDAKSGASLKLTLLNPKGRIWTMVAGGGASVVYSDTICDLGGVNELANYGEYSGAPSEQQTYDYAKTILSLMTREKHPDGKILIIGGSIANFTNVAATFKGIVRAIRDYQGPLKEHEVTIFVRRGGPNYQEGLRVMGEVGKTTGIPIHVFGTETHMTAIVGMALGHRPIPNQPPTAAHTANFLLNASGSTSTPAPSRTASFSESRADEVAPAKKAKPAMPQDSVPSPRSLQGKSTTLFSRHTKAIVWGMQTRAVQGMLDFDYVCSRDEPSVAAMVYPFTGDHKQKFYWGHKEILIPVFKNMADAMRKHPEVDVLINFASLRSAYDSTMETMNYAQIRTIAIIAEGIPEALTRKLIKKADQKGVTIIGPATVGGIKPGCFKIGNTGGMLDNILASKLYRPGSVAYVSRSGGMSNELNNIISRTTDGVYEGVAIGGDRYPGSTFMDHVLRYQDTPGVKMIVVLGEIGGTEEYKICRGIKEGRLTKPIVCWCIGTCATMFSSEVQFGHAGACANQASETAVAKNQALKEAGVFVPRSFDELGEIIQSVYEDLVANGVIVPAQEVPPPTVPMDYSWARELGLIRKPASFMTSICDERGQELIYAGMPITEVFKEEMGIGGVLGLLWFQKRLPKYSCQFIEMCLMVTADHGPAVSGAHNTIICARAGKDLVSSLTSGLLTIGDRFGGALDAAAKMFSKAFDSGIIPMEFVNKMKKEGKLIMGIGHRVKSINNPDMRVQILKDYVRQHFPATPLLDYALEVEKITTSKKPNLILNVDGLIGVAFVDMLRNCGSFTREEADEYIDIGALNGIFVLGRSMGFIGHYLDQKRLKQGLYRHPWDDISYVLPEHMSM

SMILES	IC50 [µM]
O=S(=O)(c1cc(F)cc(F)c1O)n1c(-c2cncs2)cc2cc(F)ccc21 [I-86]	0.5 to 20
N#Cc1ccc2c(c1)cc(-c1ccccc1)n2S(=O)(=O)c1cc(F)cc(F)c1O [I-77]	0.5 to 20
O=S(=O)(c1cc(Cl)cc(Cl)c1O)N1CCC(Oc2ccccc2)CC1 [I-10]	0.5 to 20
O=S(=O)(c1cc(Br)cc(Cl)c1O)N1CCc2ccc(-c3ccccc3)cc21 [I-3, 4-bromo-2-chloro-6-((6-phenylindolin-1-yl)sulfonyl)phenol]	0.5 to 20
C[C@@H]1CN(S(=O)(=O)c2cc(Cl)cc(Cl)c2O)C[C@H](C)O1 [I-14]	0.5 to 20
Cc1ccc(-c2cc3cc(Cl)ccc3n2S(=O)(=O)c2cc(F)cc(F)c2O)nn1 [I-96]	0.5 to 20
O=S(=O)(c1cc(Br)cc(Cl)c1O)n1c(-c2ccccc2)cc2ccccc21 [I-23, 4-bromo-2-chloro-6-((2-phenyl-1H-indol-1-yl)sulfonyl)phenol]	0.5 to 20
COc1ccc(Cn2cncc(-c3cc4cc(Cl)ccc4n3S(=O)(=O)c3cc(F)cc(F)c3O)c2=O)cc1 [I-136, 5-(5-chloro-1-((3,5-difluoro-2-hydroxyphenyl)sulfonyl)-1H-indol-2-yl)-3-(4-methoxybenzyl)pyrimidin-4(3H)-one]	0.5 to 20
N#Cc1ccc2c(c1)cc(-c1cccc(F)c1)n2S(=O)(=O)c1cc(F)cc(F)c1O [I-75]	0.5 to 20
O=S(=O)(c1cc(Cl)cc(Cl)c1O)N1CC(c2nc3ccccc3s2)C1 [I-15]	0.5 to 20
CCOC(=O)c1cc2cc(Cl)ccc2n1S(=O)(=O)c1ccc(-c2ccccc2)cc1F [I-164]	≥ 20
N#Cc1ccc2c(c1)cc(-c1cn[nH]c1)n2S(=O)(=O)c1cc(F)cc(F)c1O [I-74]	0.5 to 20
O=S(=O)(c1cc(F)cc(F)c1O)n1c(-c2ccnnc2)cc2cc(Cl)ccc21 [I-103]	0.5 to 20

Continued, values first:

IC50 [µM]	SMILES
0.5 to 20	COC(=O)c1ccc2c(c1)cc(-c1ccccc1)n2S(=O)(=O)c1cc(Br)cc(Cl)c1O [I-53]
0.5 to 20	O=C(O)c1sccc1S(=O)(=O)n1c(-c2ccccc2)cc2cc(Cl)ccc21 [I-71]
0.5 to 20	O=c1[nH]cc(Cl)cc1S(=O)(=O)n1c(-c2ccccc2)cc2cc(Cl)ccc21 [I-65, 5-chloro-3-((5-chloro-2-phenyl-1H-indol-1-yl)sulfonyl)pyridin-2(1H)-one]
0.5 to 20	CN(C)C(=O)c1ccc2c(c1)cc(-c1ccccc1)n2S(=O)(=O)c1cc(Br)cc(Cl)c1O [I-56]
≥ 20	COC(=O)c1ccc2c(c1)cc(-c1ccccc1)n2S(=O)(=O)c1cc(F)cc(F)c1 [I-114]
0.5 to 20	CN(C)C(=O)c1cccc(-c2cc3cc(Cl)ccc3n2S(=O)(=O)c2cc(Br)cc(Cl)c2O)c1 [I-37]
0.5 to 20	O=C(O)c1cccc(-c2cc3cc(Cl)ccc3n2S(=O)(=O)c2cc(Cl)cc(Cl)c2)c1 [I-84]
≥ 20	CCOC(=O)c1cc2cc(Cl)ccc2n1S(=O)(=O)c1cc(Cl)cc(Cl)c1 [I-108]
0.5 to 20	Cc1ccccc1-c1cc2cc(Cl)ccc2n1S(=O)(=O)c1cc(Br)cc(Cl)c1O [I-35]
0.5 to 20	Cc1cc2cc(Cl)ccc2n1S(=O)(=O)c1cc(-c2ccccc2)cc(Cl)c1O [I-142]
0.5 to 20	NC(=O)c1cc(Cl)c(O)c(S(=O)(=O)n2c(-c3ccccc3)cc3cc(Cl)ccc32)c1 [I-79]
0.5 to 20	O=S(=O)(c1cc(F)ccc1O)n1c(-c2ccccc2)cc2cc(Cl)ccc21 [I-76]
0.5 to 20	O=C(O)c1cc(C(=O)O)c(O)c(S(=O)(=O)n2c(-c3ccccc3)cc3cc(Cl)ccc32)c1 [I-121]
0.5 to 20	O=S(=O)(c1cc(F)cc(F)c1O)n1c(-c2ccncc2)cc2cc(Cl)ccc21 [I-93]
0.5 to 20	O=C(O)c1cccc2c1cc(-c1ccccc1)n2S(=O)(=O)c1cc(Cl)cc(Br)c1 [I-68]
< 0.5	O=C(O)c1ccc2c(c1)cc(-c1ccccc1)n2S(=O)(=O)c1cc(Br)cc(Cl)c1O [I-55]
